One data set has as its system E. coli UTI89[pCOMGFP]. Nature of the data set: Biofilm pods / intracellular bacterial communities (IBC) in mouse bladders, confocal microscopy. It counts as in vivo, C3H/HeN mice. To be noted: for reduction in biofilm pods or intracellular bacterial communities (IBC) in the bladders of mice as compared to the controls: experiment 1: 40 μg/ml intravesical, 30 min pre-incubation, 10^8 CFU, five hours. As to the method:
The experiment was performed using the procedures described in Justice, S. et al., Differentiation and development pathways of uropathogenic Escherichia coli in urinary tract pathogenesis.PNAS, 2004, 101(5), p. 1333-1338. Briefly, E. coli UTI89[pCOMGFP] was prepared after retrieval from frozen stocks by inoculating in LB medium statically for approximately 20 hours. Cells were harvested and suspended in 1 ml of PBS. Cells were diluted to achieve approximately a 10^8 CFU or 10^7 CFU input into C3H/HeN mice (2 mice per group).
Mice were deprived of water for approximately two hours. In experiment 1, all mice were anesthetized with 0.15 cc ketamine cocktail. In experiment 2, all mice were anesthetized with isofluorane. In experiment 1, urine was dispelled from the bladders and approximately 40 μg/ml of test compound or an appropriate amount of ethanol as control was introduced into the bladders via catheterization of the urethra using a tubing coated tuberculin syringe. 30 minutes was allowed to elapse. In experiment 2, bladders were not pre-incubated with test compounds. Bladders were then expelled and an inoculum of 10^8 CFU (Experiment 1) or 10^7 CFU (Experiment 2) of E. coli containing 40 μg/ml of test compound or equivalent amount of ethanol as controls were introduced into the bladders as indicated above.
In experiment 1 five hours elapsed and in experiment 2 six hours elapsed, and then mice were anesthetized and sacrificed. The bladders were removed, bisected, stretched, and fixed in 3% paraformaldehyde for 1 hour at room temperature. Bladders were then permeabilized in 0.01% Triton/PBS for 10 minutes and counter stained with TOPRO3 (Molecular Probes) for 10 minutes for visualization by confocal microscopy. Bladders were mounted on Prolong antifade (Molecular Probes).

For data set [1], the system named is P. aeruginosa strain PAO1. Nature of the data set: Rotating disk reactor (RDR) biofilm test with and without tobramycin. In kind it is cell-based, Pseudomonas aeruginosa. To be noted: test compound 100 μg/ml 24 h; for Test Compound, log10 CFU: no tobramycin; for Tobramycin and Test Compound, log10 CFU: then tobramycin 100 μg/ml 2 h. Here is the method: Biofilm formation of P. aeruginosa was evaluated using a standardized biofilm method with a rotating disk reactor (RDR). This method provides a model resembling the formation of biofilms in cystic fibrosis patients. The rotating disk reactor consists of a one-liter glass beaker fitted with a drain spout. The bottom of the vessel contains a magnetically driven rotor with six 1.27 cm diameter coupons constructed from polystyrene. The rotor consists of a star-head magnetic stir bar upon which a disk was affixed to hold the coupons. The vessel with the stir bar was placed on a stir plate and rotated to provide fluid shear. A nutrient solution (AB Trace Medium with 0.3 mM glucose, see Table 1 below for composition) was added through a stopper in the top of the reactor at a flow rate of 5 ml/min. The reactor volume was approximately 180 ml and varied slightly between reactors depending on the placement of the drain spout and the rotational speed of the rotor. At a volume of 180 ml, the residence time of the reactors was 36 minutes. The reactors were operated at room temperature (c.a. 26° C.).
For each test, two RDRs were operated in parallel with one receiving test compound and the other serving as an untreated control. The RDRs were sterilized by autoclave, then filled with sterile medium and inoculated with P. aeruginosa strain PAO1. The reactors were then incubated at room temperature in batch mode (no medium flow) for a period of 24 hours, after which the flow was initiated for a further 24 hour incubation. Test compounds were dissolved in 10 ml ethanol to achieve a concentration of 1.8 mg/ml. After the 48 hours of biofilm development described above, the 10 ml of ethanol containing the test compounds were added to the reactor to achieve a final concentration of approximately 50, 100, or 200 μg/ml. Control reactors received 10 ml of ethanol. The reactors were then incubated for an additional 24 hours in batch (no flow) mode. After this incubation period, the six coupons were removed from each reactor and placed in 12-well polystyrene tissue culture plates with wells containing either 2 ml of a 100 μg/ml tobramycin solution or 2 ml of phosphate-buffered saline (PBS). These plates were incubated at room temperature for two hours. The coupons were then rinsed by three transfers to plates containing 2 ml of fresh PBS. For each two RDR reactors run in parallel, four sets of three coupons were obtained: one set with no test compound treatment and no tobramycin treatment, one set with no test compound treatment and tobramycin treatment, one set treated with a test compound treatment and no tobramycin treatment, and one set treated with a test compound treatment and tobramycin. After rinsing, one coupon of each set of three was stained with a LIVE/DEAD® BacLight™ Bacterial Viability Kit (Molecular Probes, Eugene Oreg.) and imaged using epifluorescent microscopy. The remaining two coupons were placed in 10 ml of PBS and sonicated for five minutes to remove and disperse biofilm cells. The resulting bacterial suspensions were then serially diluted in PBS and plated on tryptic soy agar plates for enumeration of culturable bacteria. The plates were incubated for 24 hours at 37° C. before colony forming units (CFU) were determined.
The results are averages from experiments performed on three separate days for each test compound. The values reported are as log10 CFU.

The test system of data set [2] is E. coli clinical strain UTI89. Nature of the data set: Biofilm formation inhibition, crystal violet, E. coli clinical strain UTI89. It counts as cell-based. To be noted: Escherichia coli, 20 ug/ml, read-out: inhibited biofilm formation. Here is the method: (§1) Biofilm inhibition experiments were conducted using an assay adapted from the reported protocol described in Pratt and Kolter, 1998, Molecular Microbiology, 30: 285-293; Li et al., 2001, J. Bacteriol., 183: 897-908. E. coli clinical strain UTI89 was grown in LB in 96 well plates at room temperature for one or two days without shaking. E. coli laboratory strain JM109 was grown in LB plus 0.2% glucose in 96 well plates at room temperature for one day without shaking. To quantify the biofilm mass, the suspension culture was poured out and the biofilm was washed three times with water. The biofilm was stained with 0.1% crystal violet for 20 minutes. The plates were then washed three times with water. OD reading at 540 nm was measured to quantify the biofilm mass at the bottom of the wells. Then 95% ethanol was added to dissolve the dye at the bottom and on the wall and the OD reading at 540 nm was measured to quantify the total biofilm mass. To study the overall effect of the compounds (3.6 mg/mL in 100% ethanol as stock solution), it was added with the inoculation and a time course of biofilm mass was measured. Appropriate amounts of 100% ethanol were added to each sample to eliminate the effect of solvent. Each condition had 3-4 replicates on each plate and was performed over multiple days.

In data set [3] the test system is E. coli clinical strain UTI89. The data set can be described thus: Invasion of E. coli UTI89 into bladder epithelial cells. It counts as cell-based. Here is the method: The effect of test compounds on bacterial invasion of E. coli clinical strain UTI89 was studied as described in Elsinghorst, et al. 1994, Methods Enzymol, 236:405-420; and Martinez et al., 2000, EMBO J., 19:2803-2812. Epithelial bladder cells were grown in plates. Asiatic acid, corosolic acid, or ursolic acid were added at concentrations of 10 μg/ml, 20 μg/ml, or 40 μg/ml to bacteria and epithelial cells for approximately 5, 15, 30, or 60 minutes with approximately 10^7 CFU of E. coli. Binding was assessed at time zero and invasion was assessed at approximately 5, 15, 30, or 60 minutes from completing the mixture of compound, bacteria, and epithelial cells. As a control ethanol was added to cells to a final concentration of 0.1%. The effect of bacterial viability and bacterial adherence during the infection period was evaluated according to the methods described in Martinez et al., 2000, EMBO J., 19:2803-2812.

The subject of another data set is bacterial invasion. The data set can be described thus: Bacterial invasion statement of Example 9. To be noted: within 15 minutes of administration.
For data set [4], the system named is E. coli laboratory strain JM109. The data set can be described thus: Biofilm formation inhibition, crystal violet, E. coli laboratory strain JM109. It counts as cell-based. To be noted: Escherichia coli, read-out: inhibited biofilm formation as compared to the controls. As to the method:
as §1

Data set [5] in a line: Bladder concentrations in rats after oral dose. To be noted: rat, in vivo; rats; 50 mg/kg oral, single bolus in 50% Labrasol; at 24 hours; read-out: concentration in the bladder. Here is the method:
Pharmacokinetic studies of asiatic acid and madecassic acid in rats were performed separately. Asiatic acid and madecassic acid were evaluated at 50 mg/kg (oral). Two animals were assigned to each group. Prior to dosing, a baseline blood sample was taken from each animal. At time zero, asiatic acid and madecassic acid, a single bolus dose in 50% Labrasol (Gattefosse) was given to each animal. Bladders were analyzed at 24 hours. Concentrations of both asiatic acid and madecassic acid in the bladder were approximately 30 μg/g at 24 hours.

The next data set deals with cysB gene. To be noted: examples of U.S. patent application Ser. No. 11/085,279; cited from earlier work.
Setting [6] is: 40 μg/ml, 60 minutes, separate experiments (n=4-7).

Take `C[C@H]1[C@H](C)CC[C@]2(C(=O)O)CC[C@]3(C)C(=CC[C@@H]4[C@@]5(C)C[C@@H](O)[C@H](O)C(C)(C)[C@@H]5CC[C@]43C)[C@H]12` [Corosolic acid, corosolic acid]: the “reduction in biofilm pods or intracellular bacterial communities (IBC) in the bladders of mice as compared to the controls” value in the data set on E. coli UTI89[pCOMGFP] was 94%. The “reduction in large biofilm pods or large IBC in the bladders of mice as compared to the controls” value with E. coli UTI89[pCOMGFP] (experiment 2: 40 μg/ml with inoculum, no pre-incubation, 10^7 CFU, six hours) is recorded as roughly 60%. In addition, the “appearance of E. coli in mouse bladder, confocal microscopy image (FIG. 3)” value in the data set with E. coli UTI89[pCOMGFP] (mouse inoculated with E. coli UTI89 and compound, control shows an IBC (FIG. 2)) is “small collection of E coli”. Also, the “Test Compound, log10 CFU” value in data set [1] came to 7.3 log10 CFU. Also, in data set [1], the “Tobramycin and Test Compound, log10 CFU” value was 4.2 log10 CFU. In addition, in data set [2], the inhibition at 20 µg/mL is roughly 85%. For the same molecule, the “reduced invasion of E. coli into bladder epithelial cells as compared to the controls” value worked out at 65% in data set [3] (20 μg/ml, 60 minutes, separate experiments (n=4)); 10% in data set [3] (40 μg/ml, 5 minutes, time series, triplicate); 70% in data set [3] (40 μg/ml, 15 minutes, time series, triplicate); 90% in data set [3] (setting [6]); 90% in data set [3] (40 μg/ml, 60 minutes, time series, triplicate).
In the case of `C[C@H]1[C@H](C)CC[C@]2(C(=O)O)CC[C@]3(C)C(=CC[C@@H]4[C@@]5(C)C[C@@H](O)[C@H](O)[C@@](C)(CO)[C@@H]5[C@H](O)C[C@]43C)[C@H]12` [Madecassic acid, madecassic acid], the “bacterial invasion (in words)” value with bacterial invasion was “significantly reduced bacterial invasion”. The inhibition at 5 µg/mL in data set [4] (JM 109, 5 ug/ml) is roughly 60%. The inhibition at 10 µg/mL in data set [4] (JM 109, 10 ug/ml) was roughly 75%. Besides, in data set [1], the “Test Compound, log10 CFU” value was 7.5 log10 CFU; the “Tobramycin and Test Compound, log10 CFU” value was 5.5 log10 CFU. In addition, the concentration at 24 h in data set [5] was roughly 30000 ng/g.
Consider `C[C@H]1[C@H](C)CC[C@]2(C(=O)O)CC[C@]3(C)C(=CC[C@@H]4[C@@]5(C)CC[C@H](O)C(C)(C)[C@@H]5CC[C@]43C)[C@H]12` [ursolic acid], for which the “reduction in biofilm pods or intracellular bacterial communities (IBC) in the bladders of mice as compared to the controls” value in the data set on E. coli UTI89[pCOMGFP] is given as 70%. Moreover, the “expression of a cysB gene in E. coli” value in the data set on cysB gene was “modulate the expression of a cysB gene”. The “reduced invasion of E. coli into bladder epithelial cells as compared to the controls” value in data set [3] (setting [6]) was 76%.

These data come from patent US20060264411A1, “Control of biofilm formation” (priority 2005, published 2006).
